Measured values reported in patent publication US20100234766A1, “Topical administration of a salt compound to facilitate venipuncture” (priority 2006, published 2010).

How the values were obtained:
vein of the inner elbow = assay: Vein diameter from visible light images after swabbing, arm stationary (Examples 3 and 4); conditions: for AVERAGE % CHANGE IN VEIN DIAMETER: nine minutes following application; for vasodilation of the vein of the elbow (in words): summary of Table 4, salts at 10 mM; for Diameter Post-Application / Diameter Pre-Application / Percent change (vein diameter): Example 3; for Diameter Post-Application: endpoint image nine minutes following application, concentration as in test agent label; for Diameter Pre-Application: initial image prior to application of test agent (baseline); for Percent change (vein diameter): nine minutes following application versus pre-application;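 on all read-outs here: agents applied to skin over the inner elbow vein with the arm resting still on a table, diameter read in pixels from images taken before and nine minutes after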
Procedure: Studies in Example 2 were performed except that the vein of the inner elbow, the site most frequently used for phlebotomy, was evaluated and vein diameter was measured from enlarged, sequential, visible light images. […] Instead the response to swabbing was recorded with the arm in a stationary position resting on a table top.
The initial image was taken prior to application of each test agent. The endpoint image was taken nine minutes following application of the test agent. The vein diameters were measured in pixels.
The procedure of Example 3 was repeated utilizing swabs impregnated with various salt compounds on one to three adult male and female subjects. Each test compound was applied to the skin overlying the vein of the inner elbow. The initial image was taken prior to application of each test agent. The endpoint image was taken nine minutes following application of the test agent. The vein diameters were measured in pixels.

[1] = tested on: veins visible on the dorsum of the hand; assay: Peripheral venous filling time after topical application (Example 1); assay type: in vivo, human; conditions: for VENOUS FILL TIME: average of two subjects; for effect on venous fill time (in words): topical application, dorsum of hand, summary of Table 1
Procedure: Several studies were conducted to determine the effect of topically applied compounds on peripheral venous filling. The same two healthy adult male volunteer subjects were used for each of the studies.
In each study, a baseline value for peripheral venous filling time was determined as follows. Each subject held their outstretched arm vertically with hand directed upwards toward the ceiling for a period of time sufficient to cause the veins visible on the dorsum of the hand to attain their minimum dilation. Then, the subject lowered their hand and held their outstretched arm vertically with hand directed downwards toward the floor for a period of time sufficient to cause the veins visible on the dorsum of the hand to attain their maximum dilation. The time for the veins to attain maximum dilation following the lowering of the hands was measured.
This procedure was repeated following application of a test compound to the site of visible veins on the dorsum of the hands in order to determine the effect of the test compound on venous filling. Longer venous filling times are indicative of vasodilation and increased pooling of blood within the vein.

dorsal hand veins = assay: Infrared thermal imaging of dorsal hand veins after swabbing and hand elevation (Example 2); assay type: in vivo, human
Procedure: Infrared (IR) thermal imaging utilizing a standardized, calibrated infrared (950 nm wavelength) camera acquiring electronic images and providing color coded maps for testing effects of test vasodilator chemical compounds on dorsal hand veins was performed in three male and two female healthy volunteers. Infrared was utilized to determine the degree to which the test chemical compounds cause vasodilation because infrared provides a measure of thermal gradient and diameter that correlates well with visual indications of increased venous size and with successful first attempt venipuncture. Test agents were applied by swabbing the target area for about 30 seconds. A baseline control without application of any swab or by swabbing with a placebo swab containing no liquid was performed at the start of each test as a basis to compare imaging of the vein dilator dependent filling. IR images were obtained using a standardized, calibrated infrared (950 nm wavelength) camera that acquired an electronic image and provided a color coded thermal map. […] The swab was rubbed onto the dorsal surface of a hand of each subject and then the hand was elevated for 2 minutes after which the hand was returned to a horizontal position. IR imaging was performed on the dorsum of the hand before elevation and at intervals following the return to the horizontal position.

[2] = Example 4, 10 mM, one to three subjects
[3] = Study 1, baseline (none) 54 sec, EtOH 70%, MgCl2 100 mM
[4] = Study 3, baseline (none) 51 sec, EtOH 70%, MgSO4 10 mM
[5] = Study 4, baseline (none) 39 sec, MgSO4 10 mM

CC(=O)[O-].CC(=O)[O-].[Ca+2] [10 mM Ca acetate, Ca acetate]
AVERAGE % CHANGE IN VEIN DIAMETER (vein of the inner elbow; [2]): −0.5% | vasodilation of the vein of the elbow (in words) (vein of the inner elbow; Example 4): did not show vasodilation

[Ca+2].[Cl-].[Cl-] [10 mM CaCl2, CaCl2]
AVERAGE % CHANGE IN VEIN DIAMETER (vein of the inner elbow; [2]): 12.0%

O=S(=O)([O-])[O-].[Ca+2] [10 mM CaSO4, CaSO4]
AVERAGE % CHANGE IN VEIN DIAMETER (vein of the inner elbow; [2]): 17.7%

[Cl][Cu][Cl] [10 mM CuCl2, CuCl2]
AVERAGE % CHANGE IN VEIN DIAMETER (vein of the inner elbow; [2]): 10.5%

O=S(=O)([O-])[O-].[Cu+2] [10 mM CuSO4, CuSO4]
AVERAGE % CHANGE IN VEIN DIAMETER (vein of the inner elbow; [2]): 20.95%

CC(=O)[O-].CC(=O)[O-].[Mg+2] [10 mM Mg acetate, Mg acetate]
AVERAGE % CHANGE IN VEIN DIAMETER (vein of the inner elbow; [2]): 27.9%

O=C([O-])CC(O)(CC(=O)[O-])C(=O)[O-].O=C([O-])CC(O)(CC(=O)[O-])C(=O)[O-].[Mg+2].[Mg+2].[Mg+2] [10 mM Mg citrate, Mg citrate]
AVERAGE % CHANGE IN VEIN DIAMETER (vein of the inner elbow; [2]): 4.2%

CC(=O)[O-].CC(=O)[O-].[Mn+2] [10 mM Mn acetate, Mn acetate]
AVERAGE % CHANGE IN VEIN DIAMETER (vein of the inner elbow; [2]): 0.0%

[Cl][Mn][Cl] [10 mM MnCl2, MnCl2]
AVERAGE % CHANGE IN VEIN DIAMETER (vein of the inner elbow; [2]): 2.7% | vasodilation of the vein of the elbow (in words) (vein of the inner elbow; Example 4): mild vasodilation

O=S(=O)([O-])[O-].[Mn+2] [10 mM MnSO4, MnSO4]
AVERAGE % CHANGE IN VEIN DIAMETER (vein of the inner elbow; [2]): 0.0%

CC(=O)[O-].CC(=O)[O-].[Sr+2] [10 mM Sr acetate, Sr acetate]
AVERAGE % CHANGE IN VEIN DIAMETER (vein of the inner elbow; [2]): 7.35%

[Cl-].[Cl-].[Sr+2] [10 mM SrCl2, SrCl2]
AVERAGE % CHANGE IN VEIN DIAMETER (vein of the inner elbow; [2]): −6.0% | vasodilation of the vein of the elbow (in words) (vein of the inner elbow; Example 4): did not show vasodilation

O=S(=O)([O-])[O-].[Sr+2] [10 mM SrSO4, SrSO4]
AVERAGE % CHANGE IN VEIN DIAMETER (vein of the inner elbow; [2]): 16.95%

O=S(=O)([O-])[O-].[Zn+2] [10 mM ZnSO4, ZnSO4]
AVERAGE % CHANGE IN VEIN DIAMETER (vein of the inner elbow; [2]): −4.4% | vasodilation of the vein of the elbow (in words) (vein of the inner elbow; Example 4): failed to demonstrate vasodilation

CCO [EtOH, ethyl alcohol]
VENOUS FILL TIME [1, 3]: 59 s | % CHANGE FROM BASELINE (venous fill time) [1, 3]: 9% | VENOUS FILL TIME [1, 4]: 38 s | % CHANGE FROM BASELINE (venous fill time) [1, 4]: (−25) % | decrease in fill time ([1]; study 3, EtOH 70%, versus baseline): 25% | effect on venous fill time (in words) [1]: no effect on venous fill time

CC(C)O [Isopropyl alcohol, isopropyl alcohol, reference compound]
VENOUS FILL TIME [1, 5]: 69 s | % CHANGE FROM BASELINE (venous fill time) [1, 5]: 76% | effect on venous fill time (in words) [1]: increased venous fill time | effect on dorsal hand veins on IR examination (in words), early (dorsal hand veins; Example 2a, compared to dry swab control, 30 seconds following return to horizontal, 70% isopropyl alcohol): initial vasoconstriction with reduced filling of the veins on the dorsum of the hand | Diameter Post-Application (vein of the inner elbow): 55.04 pixels | Diameter Pre-Application (vein of the inner elbow): 57.78 pixels | Percent change (vein diameter) (vein of the inner elbow): (−4.74) Percent | AVERAGE % CHANGE IN VEIN DIAMETER (vein of the inner elbow; Example 4, 70%): −13.2% | vasodilation of the vein of the elbow (in words) (vein of the inner elbow; Example 4): constriction of the underlying vein

[Cl-].[Cl-].[Mg+2] [MgCl2]
VENOUS FILL TIME [1, 3]: 158 s | % CHANGE FROM BASELINE (venous fill time) [1, 3]: 190% | effect on venous fill time (in words) [1]: substantial increases in venous filling time compared to baseline control | AVERAGE % CHANGE IN VEIN DIAMETER (vein of the inner elbow; [2]): 6.5%

O=S(=O)([O-])[O-].[Mg+2] [MgSO4, magnesium sulfate]
effect on venous fill time (in words) [1]: substantial increases in venous filling time compared to baseline control | Increase in Venous Diameter Following Hand Elevation (dorsal hand veins; MgSO4 10 mM in water, benzalkonium chloride 1%, maximal dilation after return to horizontal, control (dry swab) <10%): 30% | Diameter Post-Application (vein of the inner elbow): 73.06 pixels | Diameter Pre-Application (vein of the inner elbow): 65.86 pixels | Percent change (vein diameter) (vein of the inner elbow): 10.93% | AVERAGE % CHANGE IN VEIN DIAMETER (vein of the inner elbow; [2]): 30.0% | AVERAGE % CHANGE IN VEIN DIAMETER (vein of the inner elbow; Example 4, 100 mM): 25.2% | AVERAGE % CHANGE IN VEIN DIAMETER (vein of the inner elbow; Example 4, 1 M): 22.9% | optimal concentration (vein of the inner elbow; Example 4, from 10 mM, 100 mM and 1 M tested): 10 mM | vasodilation of the vein of the elbow (in words) (vein of the inner elbow; Example 4): powerful vasodilator

benzalkonium chloride [1% benzalkonium chloride, reference compound]
Diameter Post-Application (vein of the inner elbow): 37.80 pixels | Diameter Pre-Application (vein of the inner elbow): 34.41 pixels | Percent change (vein diameter) (vein of the inner elbow): 9.85%
